From patent US9006454B2, “Dihydroorotate dehydrogenase inhibitors” (Merck Serono S.A., priority 2009, dated 2015)

Tests used:
Jurkat cells = experiment: Measurement of cell proliferation (Jurkat cell), XTT assay; assay type: cell-based; conditions: for inhibition at 1 µM: read-out: % inh Jurkat_cells @ 1 uM (%); for EC50: XTT cell viability
Summary of the method: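 Jurkat T cells, 100,000 per well in RPMI with 10% FBS, exposed 72 h at 37 °C to serial compound dilutions (typically from 10 μM, half-log steps, triplicate) at 0.25–0.5% DMSO. Viability by XTT/PMS, A465 after 2 h, media background subtracted, untreated cells as 100%; EC50 from curve fit.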

DHODH = DHODH (Homo sapiens (Human), UniProt Q02127); experiment: DHODH activity assay (coupled enzyme assay, DCIP reduction, absorbance at 610 nm); assay type: biochemical; conditions: for inhibition at 10 µM / inh @ 10 uM hDHODH (%): compound at 10 uM; for inhibition at 10 µM: read-out: inh @ 10 uM hDHODH (%)
[1] = Homo sapiens, Jurkat, compound at 1 uM

Chain of DHODH (Q02127 whole entry): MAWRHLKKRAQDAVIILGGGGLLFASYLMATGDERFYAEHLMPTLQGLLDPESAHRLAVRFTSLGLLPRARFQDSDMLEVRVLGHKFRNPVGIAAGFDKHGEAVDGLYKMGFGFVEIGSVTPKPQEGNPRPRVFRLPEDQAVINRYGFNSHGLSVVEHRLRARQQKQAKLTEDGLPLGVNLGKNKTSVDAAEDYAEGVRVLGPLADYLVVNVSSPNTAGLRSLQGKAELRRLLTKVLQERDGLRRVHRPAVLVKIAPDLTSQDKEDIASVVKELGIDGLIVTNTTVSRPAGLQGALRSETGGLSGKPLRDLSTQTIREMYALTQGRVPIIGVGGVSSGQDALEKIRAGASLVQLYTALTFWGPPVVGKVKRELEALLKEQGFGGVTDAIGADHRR

Row | SMILES | inhibition at 10 µM (DHODH) [%] | IC50 (DHODH) [nM] | EC50 (Jurkat cells; Homo sapiens, Jurkat, 72 h) [nM] | EC50 (Jurkat cells; 72 hrs) [nM] | inh @ 10 uM hDHODH (%) (DHODH) | inhibition at 1 µM (Jurkat cells; [1]) [%] | % inh Jurkat_cells @ 1 uM (%) (Jurkat cells; compound at 1 uM)
1 | N#Cc1ccc(Oc2ccc(-c3nc4cccc(C(=O)O)c4[nH]3)cc2)cc1 [I77, 2-[4-(4-Cyano-phenoxy)-phenyl]-3H-benzoimidazole-4-carboxylic acid] | 34.6 | – | – | – | – | 11.5 | –
2 | Cc1cc(C(=O)O)c2[nH]c(-c3ccc(-c4ccc(O)c(O)c4)cc3)nc2c1 [I91] | 94.2 | 645 | – | – | – | 62.3 | –
3 | O=C(O)c1cccc2[nH]c(-c3ccc(-c4cccc(F)c4)cc3)nc12 [I17] | 65.2 | 3790 | – | – | – | 23.5 | –
4 | Cc1cc(C(=O)O)c2nc(-c3c(F)c(F)c(-c4cccc(NC(=O)C5CCCN5)c4)c(F)c3F)[nH]c2c1 (centres unmarked) [I86] | 93.1 | 815 | – | – | – | 70.8 | –
5 | O=C(O)c1cccc2[nH]c(-c3ccc(-c4ccccc4)cc3)nc12 [I1] | 93.9 | 795 | 645 | – | – | – | –
6 | O=C(O)c1cccc2[nH]c(-c3ccc(-c4ccsc4)cc3)nc12 [I22] | 57.3 | – | – | – | – | 15.3 | –
7 | Cc1cc(C(=O)O)c2nc(-c3ccc(-c4ccccc4)cc3)[nH]c2c1 [I14] | 102 | 304 | 263 | – | – | 76.9 | –
8 | COc1cccc(-c2ccc(-c3nc4c(C(=O)O)cccc4[nH]3)c(F)c2)c1 [I5] | – | 368 | – | 356 | 94.3 | – | –
9 | Cc1cc(C(=O)O)c2nc(-c3c(F)c(F)c(-n4c(C)ccc4C)c(F)c3F)[nH]c2c1 [I82, 2-[4-(2,5-Dimethyl-pyrrol-1-yl)-2,3,5,6-tetrafluoro-phenyl]-6-methyl-1H-benzoimidazole-4-carboxylic acid] | 111 | 5.6 | – | – | – | 106 | –
10 | Cc1cc(C(=O)O)c2nc(-c3ccc(Oc4ccccn4)cc3)[nH]c2c1 [I71, 6-Methyl-2-[4-(pyridin-2-yloxy)-phenyl]-1H-benzoimidazole-4-carboxylic acid] | 75.5 | 4380 | – | – | – | 28.3 | –
11 | O=C(O)c1cccc2nc(-c3ccc(-n4ccccc4=O)cc3)[nH]c12 [I63] | 5.3 | – | – | – | – | 1.4 | –
12 | Cc1cc(C(=O)O)c2nc(-c3c(F)c(F)c(-c4ccc(CN5CCCCC5)cc4)c(F)c3F)[nH]c2c1 [I83, 6-Methyl-2-(2,3,5,6-tetrafluoro-4′-piperidin-1-ylmethyl-biphenyl-4-yl)-1H-benzoimidazole-4-carboxylic acid] | 111 | 78 | – | – | – | 93 | –
13 | O=C(O)c1cc(Cl)cc2c1N=C(c1ccc(-c3ccccc3)cc1)C2 [I51] | – | 2320 | – | – | 86.4 | – | 39.5
14 | Cc1cc(C(=O)O)c2[nH]c(-c3ccc(-c4ccccn4)cc3)nc2c1 [I74, 6-Methyl-2-(4-pyridin-2-yl-phenyl)-3H-benzoimidazole-4-carboxylic acid] | 56.6 | – | – | – | – | 18.4 | –
15 | O=C(O)c1cccc2[nH]c(-c3ccc(Oc4ccccn4)cc3)nc12 [I70, 2-[4-(Pyridin-2-yloxy)-phenyl]-1H-benzoimidazole-4-carboxylic acid] | 58.6 | – | – | – | – | 14.6 | –
16 | O=C(O)c1cccc2[nH]c(-c3ccc(S(=O)(=O)c4ccccc4)cc3)nc12 [I54] | 26.6 | – | – | – | – | 8 | –
17 | O=C(O)c1cccc2nc(-c3ccc(-c4ccccc4)cc3F)[nH]c12 [I27] | 86.2 | 922 | – | – | – | 57.1 | –
18 | Cc1cc(C(=O)O)c2[nH]c(-c3cc4ccccc4[nH]3)nc2c1 [I40] | 23.3 | – | – | – | – | 3.7 | –
19 | Cc1cc(C(=O)O)c2nc(-c3ccc(-c4ccsc4)cc3)[nH]c2c1 [I23] | 77.8 | – | – | – | – | 33.9 | –

Further lines, with some results ahead:

Row | inhibition at 10 µM (DHODH) [%] | IC50 (DHODH) [nM] | EC50 (Jurkat cells; Homo sapiens, Jurkat, 72 h) [nM] | EC50 (Jurkat cells; 72 hrs) [nM] | inh @ 10 uM hDHODH (%) (DHODH) | SMILES | inhibition at 1 µM (Jurkat cells; [1]) [%] | % inh Jurkat_cells @ 1 uM (%) (Jurkat cells; compound at 1 uM)
20 | 66.9 | 1220 | – | – | – | O=C(O)c1cccc2[nH]c(-c3c(F)c(F)c(-c4ccc(F)c(F)c4)c(F)c3F)nc12 [I130] | 23.2 | –
21 | 79.3 | 18 | – | – | – | O=C(O)c1cccc2[nH]c(-c3c(F)c(F)c(-c4ccccc4F)c(F)c3F)nc12 [I131] | 78.8 | –
22 | 43 | – | – | – | – | Cc1cc(C(=O)O)c2nc(-c3ccc(-c4ccc(S(N)(=O)=O)cc4)cc3)[nH]c2c1 [I174] | 9 | –
23 | 51.8 | – | – | – | – | O=C(O)c1cccc2nc(-c3ccc(-c4ccc(OCCO)cc4)cc3)[nH]c12 [I157] | 15.5 | –
24 | 75.6 | – | – | – | – | Cc1cc(C(=O)NC2CC2)c2[nH]c(-c3c(F)c(F)c(-c4ccccc4)c(F)c3F)nc2c1 [I163] | 37.7 | –
25 | 40.7 | – | – | – | – | Cc1cc(C(=O)O)c2nc(-c3ccc(-c4ccccc4)s3)[nH]c2c1 [I191] | 17.6 | –
26 | 90.8 | 20 | – | – | – | O=C(O)c1cccc2[nH]c(-c3c(F)c(F)c(-c4cc(F)cc(F)c4)c(F)c3F)nc12 [I129] | 70.5 | –
27 | 65 | 1730 | – | – | – | Cc1cc(C(=O)O)c2nc(-c3ccc(-c4ccc(OCc5ccncc5)cc4)cc3)[nH]c2c1 [I114] | 49 | –
28 | 60 | – | – | – | – | O=C(O)c1cccc2[nH]c(-c3ccc(-c4ccc(Oc5ccccn5)cc4)cc3)nc12 [I172] | 21 | –
29 | 30 | – | – | – | – | N#Cc1ccccc1Oc1ccc(-c2ccc(-c3nc4c(C(=O)O)cccc4[nH]3)cc2)cc1 [I175] | 15 | –
30 | 86 | – | – | – | – | Cc1cc(C(=O)O)c2nc(-c3ccc(-c4ccc(Oc5ccccn5)cc4)cc3)[nH]c2c1 [I171] | 35 | –
31 | 85 | 2030 | – | – | – | Cc1cc(C(=O)O)c2nc(-c3ccc(-c4ccc(Oc5ccccc5C#N)cc4)cc3)[nH]c2c1 [I112] | 49 | –
32 | 80 | – | – | – | – | O=C(O)c1cccc2[nH]c(-c3ccc(-c4ccc(CO)cc4)cc3)nc12 [I173] | 44 | –
33 | 107 | 1200 | – | – | – | Cc1cc(-c2nnn[nH]2)c2nc(-c3c(F)c(F)c(-c4ccccc4)c(F)c3F)[nH]c2c1 [I103] | 64.2 | –
34 | 92.5 | 32 | 2600 | – | – | Cc1cc(C(=O)O)c2nc(-c3c(F)c(F)c(-c4cccnc4)c(F)c3F)[nH]c2c1 [I141] | 86.9 | –
35 | 53.2 | – | – | – | – | Cc1cc(C(=O)O)c2nc(C#Cc3ccc(OCc4ccccc4)cc3)[nH]c2c1 [I166] | 13.4 | –
36 | 88.4 | 1680 | – | – | – | Cc1cc(C(=O)O)c2nc(-c3ccc(-c4cccs4)cc3)[nH]c2c1 [I149] | 47.5 | –
37 | 30.5 | – | – | – | – | O=Cc1ccc(Oc2ccc(-c3ccc(-c4nc5c(C(=O)O)cccc5[nH]4)cc3)cc2)cc1 [I180] | 9.8 | –
38 | 51.3 | – | – | – | – | O=C(O)c1cccc2[nH]c(-c3ccc(-c4ccc(O)cc4)cc3)nc12 [I177] | 40.5 | –
39 | 63.9 | – | – | – | – | O=C(O)c1cccc2[nH]c(-c3ccc(-c4ccc(OCc5ccncc5)cc4)cc3)nc12 [I183] | 23.5 | –
40 | 48.5 | – | – | – | – | Cc1cc(C(=O)NC2CCCC2)c2[nH]c(-c3c(F)c(F)c(-c4ccccc4)c(F)c3F)nc2c1 [I158] | 6.5 | –
